Assay results taken from US4778792A, “Use of 7-acyl benzoxazinones and their derivatives in treating atheromatous disorders” (Laboratories Negma, priority 1985, dated 1988).
Where a name gives a salt, the structure may show the parent alone. Read-outs that look alike come from different tables or passages of the source.

Assay: Normolipemic activity, lipid balance in normal or hypercholesterolemic mice
Type: in vivo
Conditions: per os, 50 mg/kg daily for 15 days, with respect to a control group; for change in vivo at 50 mg/kg: Mus musculus, po, 360 h
Experimental: Activity of selected molecules by the Triton test in mice rendered hypercholesterolemic and normal mice: study of the lipid parameters, of the lipoprotein and apoprotein composition.
Preliminary study on the weight of the liver and histological examination of the hepatic tissue.
3.2 The normolipemic activity has also been established in OF normal mice or rendered hypercholesterolemic. The products tested were administered per os daily for 15 days at the dose of 50 mg/kg.
All the compounds were administered orally at the rate of 50 mg/kg.

[1] = read-out: CT (Total cholesterol) %
[2] = read-out: HDLC (Cholesterol fraction contained in the HDLs) %
[3] = read-out: HDLC/TC (ratio between the cholesterol contained in the HDLs and the total cholesterol) %

Row | SMILES | change in vivo at 50 mg/kg [1] | change in vivo at 50 mg/kg [2] | change in vivo at 50 mg/kg [3] | change in vivo at 50 mg/kg (read-out: Phospho Lipids) | change in vivo at 50 mg/kg (read-out: TG (Triglycerids) %) | Liver weight / Body weight
1 | CN1C(=O)C(C)(C)Oc2cc(C(=O)c3ccc(Cl)cc3)ccc21 [MZ 125, 7-(4-Chlorobenzoyl)2,2,4-trimethyl benzoxazinone] | -25% | 1% | 18% | 15% | 19% | +17%
2 | CC1Oc2cc(C(=O)C=Cc3ccc(Cl)cc3)ccc2N(C)C1=O (centres unmarked) [MZ 134, 7(4-Chlorocinnamoyl)2,4 dimethyl benzoxazinone] | – | 5% | 10% | 11% | -9% | +5%
3 | CN1C(=O)C(C)(C)Oc2cc(C(=O)CCN3CCN(c4cccc(C(F)(F)F)c4)CC3)ccc21 [NM 8, 3(4-Metatrifluoromethylphenylpiperazino)7-propionyl 2,2,4 trimethyl benzoxazinone, hydrochloride] | 8% | 10% | 11% | 8% | 23% | -15%
4 | CN1C(=O)C(C)(C)Oc2cc(C(=O)CCN3CCOCC3)ccc21 [NM 7, 7[3-morpholinopropionyl[2'2'4 trimethylbenzoxazinone, hydrochloride] | 2% | 5% | 14% | 5% | 5% | -10%
5 | CCCC(=O)c1ccc2c(c1)OC(C)(C)C(=O)N2CCC(=O)O [NM 11, 7-Butyryl 4-β carboxyethyl 2,2-dimethyl benzoxazinone] | -37% | 7% | 43% | 16% | -8% | 0%
6 | CN1C(=O)C(C)(C)Oc2cc(C(=O)c3ccccc3)ccc21 [MZ 119, 7-Benzoyl 2,2,4 trimethyl benzoxazinone] | -30% | -6% | 21% | 15% | 21% | +12%
7 | CCCC(=O)c1ccc2c(c1)OC(C)(C)C(=O)N2 [MZ 95, 7-Butyryl 2,2-dimethyl benzoxazinone] | -21% | 0% | 25% | 5% | -5% | +6%
8 | CN1C(=O)C(C)(C)Oc2cc(C(=O)CCCN3CCN(c4ccc(F)cc4)CC3)ccc21 [MZ 153, 7[4(4p-fluorophenylpiperazino)butyryl]2,2,4-trimethyl benzoxazinone] | -10% | 25% | 45% | 19% | 18% | +4%
9 | CCCC(=O)c1ccc2c(c1)OC(C)(C)C(=O)N2C [MZ 86, 7-Butyryl 2,2,4-trimethyl benzoxazinone] | -38% | 18% | 44% | 0% | -12% | +2%
10 | CC(C)OC(=O)C(C)(C)Oc1ccc(C(=O)c2ccc(Cl)cc2)cc1 [Fenofibrate, fenofibrate, reference compound] | -30% | -11% | 30% | 18% | 24% | +55%
11 | CC1Oc2cc(C(=O)c3ccccc3)ccc2NC1=O (centres unmarked) [MZ 115, 7-Benzoyl 2-methyl benzoxazinone] | -32% | -5% | 17% | -9% | 18% | +9%
